Test results: patent US20100093748A1, “SUBSTITUTED PIPERIDINES HAVING PROTEIN KINASE INHIBITING ACTIVITY” (ASTEX THERAPEUTICS LIMITED, priority 2006, published 2010)

How the values were obtained:
[1] = target: T1, PKA catalytic domain (Homo sapiens, UniProt P17612); experiment: Measurement of PKA kinase inhibitory activity (IC50), radiometric filter plate assay; format: biochemical; conditions: 1 nM enzyme, 40 μM ATP, 20 minutes
T1 construct: using the PKA catalytic domain from Upstate Biotechnology (#14-440); purchased Upstate Biotechnology 14-440
Experimental: Compounds of the invention can be tested for PK inhibitory activity using the PKA catalytic domain from Upstate Biotechnology (#14-440) and the 9 residue PKA specific peptide (GRTGRRNSI), also from Upstate Biotechnology (#12-257), as the substrate. A final concentration of 1 nM enzyme is used in a buffer that includes 20 mM MOPS pH 7.2, 40 μM ATP/γ^33P-ATP and […] substrate. Compounds are added in dimethylsulphoxide (DMSO) solution to a final DMSO concentration of 2.5%. The reaction is allowed to proceed for 20 minutes before addition of excess orthophosphoric acid to quench activity. Unincorporated γ^33P-ATP is then separated from phosphorylated proteins on a Millipore MAPH filter plate. The plates are washed, scintillant is added and the plates are then subjected to counting on a Packard Topcount.
The % inhibition of the PKA activity is calculated and plotted in order to determine the concentration of test compound required to inhibit 50% of the PKA activity (IC50).

[2] = target: T2, PKB-PIF fusion protein (Homo sapiens, UniProt P31751); experiment: Measurement of PKB kinase inhibitory activity (IC50), radiometric filter plate assay; format: biochemical; conditions: 0.6 nM enzyme, 30 μM ATP, AKTide-2T substrate, 20 minutes
T2 construct: PIF (fusion partner); made in house
T2 sequence (P31751 with tags, fused parts or gaps limits assumed): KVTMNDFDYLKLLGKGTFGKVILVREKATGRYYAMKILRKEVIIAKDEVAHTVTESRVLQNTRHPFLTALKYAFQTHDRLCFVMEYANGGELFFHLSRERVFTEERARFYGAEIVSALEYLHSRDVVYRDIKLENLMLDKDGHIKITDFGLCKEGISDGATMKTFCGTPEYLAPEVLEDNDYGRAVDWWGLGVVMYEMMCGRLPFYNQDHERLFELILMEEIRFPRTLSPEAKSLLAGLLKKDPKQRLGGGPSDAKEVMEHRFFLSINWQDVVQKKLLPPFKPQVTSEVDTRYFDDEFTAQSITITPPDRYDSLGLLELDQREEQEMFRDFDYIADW
Text: The inhibition of protein kinase B (PKB) activity by compounds can be determined essentially as described by Andjelkovic et al. (Mol. Cell. Biol. 19, 5061-5072 (1999)) but using a fusion protein described as PKB-PIF and described in full by Yang et al (Nature Structural Biology 9, 940-944 (2002)). The protein is purified and activated with PDK1 as described by Yang et al. The peptide AKTide-2T (H-A-R-K-R-E-R-T-Y-S-F-G-H-H-A-OH) obtained from Calbiochem (#123900) is used as a substrate. A final concentration of 0.6 nM enzyme is used in a buffer that includes 20 mM MOPS pH 7.2, 30 μM ATP/γ^33P-ATP and 25 µM substrate. Compounds are added in DMSO solution to a final DMSO concentration of 2.5%. The reaction is allowed to proceed for 20 minutes before addition of excess orthophosphoric acid to quench activity. The reaction mixture is transferred to a phosphocellulose filter plate where the peptide binds and the unused ATP is washed away. After washing, scintillant is added and the incorporated activity measured by scintillation counting.
The % inhibition of the PKB activity is calculated and plotted in order to determine the concentration of test compound required to inhibit 50% of the PKB activity (IC50).

[3] = system: phosphorylation of Serine-9 residue in Glycogen Synthase Kinase-3beta as surrogate marker of cellular PKB (Akt) activity; experiment: In vitro MDA-MB-468 human breast adenocarcinoma GSK-3 phosphorylation assay; format: cell-based; conditions: MDA-MB-468 cells, 2 hours compound incubation, mean IC50, read-out: Cell pGSK3b IC50
How it was run: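 MDA-MB-468 cells (5000/well) were treated with compound for 2 h at 37° C, then fixed and immunostained for phospho-Ser9 GSK-3β with an Alexa Fluor 488 secondary antibody. Fluorescence was quantified on an Acumen Explorer. IC50 came from a background-corrected 4-parameter logistic fit with minimum set to zero; obvious outliers were excluded from means.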

Compound	IC50 [1]	IC50 [2]	IC50 [3]
NC1(c2nc3cccc(F)c3[nH]2)CCN(c2ncnc3[nH]ccc23)CC1 [Example 1, 4-(7-Fluoro-1H-benzoimidazol-2-yl)-1-(7H-pyrrolo[2,3-d]pyrimidin-4-yl)-piperidin-4-ylamine]	< 1000 nM	< 100 nM	
COc1ccc2[nH]c(C3(N)CCN(c4ncnc5[nH]ccc45)CC3)nc2c1 [Example 8, 4-(5-Methoxy-1H-benzoimidazol-2-yl)-1-(7H-pyrrolo[2,3-d]pyrimidin-4-yl)-piperidin-4-ylamine]	< 1000 nM	< 100 nM	
NC1(c2nc3ccccc3[nH]2)CCN(c2ncnc3[nH]ccc23)CC1 [Example 12, 4-(1H-benzoimidazol-2-yl)-1-(7H-pyrrolo[2,3-d]pyrimidin-4-yl)-piperidin-4-ylamine]	< 1000 nM	< 100 nM	
Cc1ccc2nc(C3(N)CCN(c4ncnc5[nH]cnc45)CC3)[nH]c2c1 [Example 17, 4-(6-Methyl-1H-benzoimidazol-2-yl)-1-(9H-purin-6-yl)-piperidin-4-ylamine]	< 1000 nM	< 100 nM	320 nM
NC1(c2nc3cc(F)cc(F)c3[nH]2)CCN(c2ncnc3[nH]ccc23)CC1 [Example 7, 4-(5,7-Difluoro-1H-benzoimidazol-2-yl)-1-(7H-pyrrolo[2,3-d]pyrimidin-4-yl)-piperidin-4-ylamine]		< 100 nM	940 nM
NC1(c2nc3ccc(F)cc3[nH]2)CCN(c2ncnc3[nH]ccc23)CC1 [Example 6, 4-(6-Fluoro-1H-benzoimidazol-2-yl)-1-(7H-pyrrolo[2,3-d]pyrimidin-4-yl)-piperidin-4-ylamine]	< 1000 nM	< 100 nM	560 nM
NC1(c2nc3cc(F)c(F)cc3[nH]2)CCN(c2ncnc3[nH]ccc23)CC1 [Example 2, 4-(5,6-Difluoro-1H-benzoimidazol-2-yl)-1-(7H-pyrrolo[2,3-d]pyrimidin-4-yl)-piperidin-4-ylamine]	< 1000 nM	< 100 nM	
NC1(c2nc3cnccc3[nH]2)CCN(c2ncnc3[nH]ccc23)CC1 [Example 10]		< 100 nM	
COc1cccc2[nH]c(C3(N)CCN(c4ncnc5[nH]ccc45)CC3)nc12 [Example 9, 4-(4-Methoxy-1H-benzoimidazol-2-yl)-1-(7H-pyrrolo[2,3-d]pyrimidin-4-yl)-piperidin-4-ylamine]		< 100 nM	
Cc1cccc2nc(C3(N)CCN(c4ncnc5[nH]ccc45)CC3)[nH]c12 [Example 4, 4-(7-Methyl-1H-benzoimidazol-2-yl)-1-(7H-pyrrolo[2,3-d]pyrimidine-4-yl)-piperidin-4-ylamine]	< 1000 nM	< 100 nM	
NC1(c2nc3ccccc3[nH]2)CCN(c2ncnc3[nH]c(=O)[nH]c23)CC1 [Example 18, 6-[4-amino-4-(1H-benzoimidazol-2-yl)-piperidin-1-yl]-7,9-dihydro-purin-8-one]	< 1000 nM	< 100 nM	
NC1(c2nc3ccc(F)c(F)c3[nH]2)CCN(c2ncnc3[nH]ccc23)CC1 [Example 3, 4-(6,7-Difluoro-1H-benzoimidazol-2-yl)-1-(7H-pyrrolo[2,3-d]pyrimidin-4-yl)-piperidin-4-ylamine]	< 1000 nM	< 100 nM	

Continued, values first:

IC50 [1]	IC50 [2]	IC50 [3]	Compound
< 1000 nM	< 1000 nM		OCC1(c2nc3ccccc3[nH]2)CCN(c2ncnc3[nH]ccc23)CC1 [Example 35, [4-(1H-Benzoimidazol-2-yl)-1-(7H-pyrrolo[2,3-d]pyrimidin-4-yl)-piperidin-4-yl]-methanol]
< 1000 nM	< 100 nM		NC1(c2nc3ccccc3o2)CCN(c2ncnc3[nH]ccc23)CC1 [Example 37, 4-Benzooxazol-2-yl-1-(7H-pyrrolo[2,3-d]pyrimidin-4-yl)-piperidin-4-ylamine]
	< 1000 nM		CNC1(c2nc3ccccc3[nH]2)CCN(c2ncnc3[nH]ccc23)CC1 [Example 33, [4-(1H-benzoimidazol-2-yl)-1-(7H-pyrrolo[2,3-d]pyrimidin-4-yl)-piperidin-4-yl]-methyl-amine]
	< 100 nM		NC1(c2nc3ccc(Cl)cc3[nH]2)CCN(c2ccnc3[nH]ccc23)CC1 [Example 20, 4-(6-chloro-1H-benzoimidazol-2-yl)-1-(1H-pyrrolo[2,3-b]pyridin-4-yl)-piperidin-4-ylamine]
	< 100 nM		NCC1(c2nc3ccccc3[nH]2)CCN(c2ncnc3[nH]ccc23)CC1 [Example 34, C-[4-(1H-Benzoimidazol-2-yl)-1-(7H-pyrrolo[2,3-d]pyrimidin-4-yl)-piperidin-4-yl]-methylamine]
	< 100 nM		NCC1(c2nc3ccccc3o2)CCN(c2ncnc3[nH]ccc23)CC1 [Example 36, C-[4-Benzooxazol-2-yl-1-(7H-pyrrolo[2,3-d]pyrimidin-4-yl)-piperidin-4-yl]-methylamine]
	< 100 nM		NC1(c2ncc(-c3ccccc3)[nH]2)CCN(c2ncnc3[nH]ccc23)CC1 [Example 39, 4-(5-Phenyl-1H-imidazol-2-yl)-1-(7H-pyrrolo[2,3-d]pyrimidin-4-yl)-piperidin-4-ylamine]
	< 1000 nM		NC1(c2nc3ccccc3o2)CCN(c2ncnc3[nH]c(=O)[nH]c23)CC1 [Example 38, 6-(4-amino-4-benzooxazol-2-yl-piperidin-1-yl)-7,9-dihydro-purin-8-one]
